Source: patent US8741897B2, “Glucocorticoid mimetics, methods of making them, pharmaceutical compositions and uses thereof” (Boehringer Ingelheim Pharmaceuticals Inc., priority 2003, dated 2014)
Values belong to the compound of their own block, whether it stands above or below them.

Legend:
[1] = molecular target: T1, human glucocorticoid receptor (GR) complex (Homo sapiens, UniProt P04150); assay: Glucocorticoid receptor competitive binding assay (fluorescence polarization, TAMRA-labeled dexamethasone probe); conditions: compounds of Formula (IA)
T1 construct: made in house; host or cells: insect expression system (baculovirus lysate)
T1 sequence (P04150 1-777): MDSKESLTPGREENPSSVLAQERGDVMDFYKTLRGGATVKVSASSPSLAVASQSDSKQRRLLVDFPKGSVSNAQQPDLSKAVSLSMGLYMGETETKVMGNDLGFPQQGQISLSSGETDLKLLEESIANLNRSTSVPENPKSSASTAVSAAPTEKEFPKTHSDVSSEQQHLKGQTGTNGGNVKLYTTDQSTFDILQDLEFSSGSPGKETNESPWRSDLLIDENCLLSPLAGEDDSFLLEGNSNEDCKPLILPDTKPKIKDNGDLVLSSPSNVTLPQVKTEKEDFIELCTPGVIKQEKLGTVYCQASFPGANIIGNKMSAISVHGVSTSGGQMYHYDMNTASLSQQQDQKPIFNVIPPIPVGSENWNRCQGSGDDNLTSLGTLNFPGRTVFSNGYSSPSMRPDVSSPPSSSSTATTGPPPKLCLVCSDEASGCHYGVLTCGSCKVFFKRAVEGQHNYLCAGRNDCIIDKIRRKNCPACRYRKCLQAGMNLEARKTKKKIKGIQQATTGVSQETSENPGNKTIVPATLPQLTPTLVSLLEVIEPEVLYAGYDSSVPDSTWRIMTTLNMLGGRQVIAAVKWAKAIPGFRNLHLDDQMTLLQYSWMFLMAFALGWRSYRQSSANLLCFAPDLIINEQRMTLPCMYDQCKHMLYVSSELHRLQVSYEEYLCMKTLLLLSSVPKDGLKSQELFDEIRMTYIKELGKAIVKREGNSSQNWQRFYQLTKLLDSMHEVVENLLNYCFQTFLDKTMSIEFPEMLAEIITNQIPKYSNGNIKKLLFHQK
Summary of the method: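 Fluorescence-polarization competition against 15 nM TAMRA-dexamethasone (stock added to the mix) for human GR complex from baculovirus lysate diluted 1:170. Buffer: 10 mM TES, 50 mM KCl, 20 mM Na2MoO4, 1.5 mM EDTA, 0.04% CHAPS, 10% glycerol, 1 mM DTT, pH 7.4. IC50 from 4-parameter logistic fit.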

[2] = test system: glucocorticoid receptor function; assay: one or more of the above assays (GR binding and glucocorticoid receptor cell assays: aromatase, IL-6, TAT, MMTV-Luc, IL-8, ICAM-Luc); type: cell-based; conditions: assay not specified per compound

activity in the GR binding assay [1]: potent activity
Compound: COc1ccc(F)cc1C(C)(C)CC(O)(Cc1cc2nc(C#N)ccc2[nH]1)C(F)(F)F (stereo not shown) [2-[4-(5-Fluoro-2-methoxyphenyl)-2-hydroxy-4-methyl-2-trifluoromethylpentyl]-1H-pyrrolo[3,2-b]pyridine-5-carbonitrile]
activity as agonists of the glucocorticoid receptor function in one or more of the above assays [2]: potent agonists

activity in the GR binding assay [1]: potent activity
Compound: CC(C)(CC(O)(Cc1cc2cc(C(F)(F)F)ncc2[nH]1)C(F)(F)F)c1cc(Cl)cc2c1OCC2 (stereo not shown) [4-(5-Chloro-2,3-dihydrobenzofuran-7-yl)-1,1,1-trifluoro-4-methyl-2-(5-trifluoromethyl-1H-pyrrolo[2,3-c]pyridin-2-ylmethyl)pentan-2-ol]
activity as agonists of the glucocorticoid receptor function in one or more of the above assays [2]: potent agonists

activity in the GR binding assay [1]: potent activity
Compound: CC(C)(CC(O)(Cc1cc2cc(C(=O)N3CCOCC3)ccc2[nH]1)C(F)(F)F)c1cc(Br)cc2c1OCC2 (stereo not shown) [{2-[4-(5-Bromo-2,3-dihydrobenzofuran-7-yl)-2-hydroxy-4-methyl-2-trifluoromethylpentyl]-1H-indol-5-yl}morpholin-4-ylmethanone]
activity as agonists of the glucocorticoid receptor function in one or more of the above assays [2]: potent agonists

activity in the GR binding assay [1]: potent activity
Compound: COc1ccc(F)cc1C(C)(C)CC(O)(Cc1cc2cc(C#N)ncc2[nH]1)C(F)(F)F (stereo not shown) [2-[4-(5-Fluoro-2-methoxyphenyl)-2-hydroxy-4-methyl-2-trifluoromethylpentyl]-1H-pyrrolo[2,3-c]pyridine-5-carbonitrile]
activity as agonists of the glucocorticoid receptor function in one or more of the above assays [2]: potent agonists

activity in the GR binding assay [1]: potent activity
Compound: Cc1ccc(C(C)(C)CC(O)(Cc2cc3ccccc3[nH]2)C(F)(F)F)cc1C (stereo not shown) [4-(3,4-Dimethylphenyl)-1,1,1-trifluoro-2-(1H-indol-2-ylmethyl)-4-methylpentan-2-ol]
activity as agonists of the glucocorticoid receptor function in one or more of the above assays [2]: potent agonists

activity in the GR binding assay [1]: potent activity
Compound: CC(C)(CC(O)(Cc1cc2ccncc2[nH]1)C(F)(F)F)c1cc(Cl)cc2c1OCC2 (stereo not shown) [4-(5-Chloro-2,3-dihydrobenzofuran-7-yl)-1,1,1-trifluoro-4-methyl-2-(1H-pyrrolo[2,3-c]pyridin-2-ylmethyl)pentan-2-ol]
activity as agonists of the glucocorticoid receptor function in one or more of the above assays [2]: potent agonists

activity in the GR binding assay [1]: potent activity
Compound: CC(C)(CC(O)(Cc1ccnc2ccccc12)C(F)(F)F)c1cccc(O)c1 (stereo not shown) [3-(4,4,4-Trifluoro-3-hydroxy-1,1-dimethyl-3-quinolin-4-ylmethylbutyl)phenol]
activity as agonists of the glucocorticoid receptor function in one or more of the above assays [2]: potent agonists

activity in the GR binding assay [1]: potent activity
Compound: Cc1ccc(C(C)(C)CC(O)(Cc2ccnc3ccccc23)C(F)(F)F)cc1C (stereo not shown) [4-(3,4-Dimethylphenyl)-1,1,1-trifluoro-4-methyl-2-quinolin-4-ylmethylpentan-2-ol]
activity as agonists of the glucocorticoid receptor function in one or more of the above assays [2]: potent agonists

The remaining lines, values behind:

Compound: COc1ccc(F)cc1C(C)(C)CC(O)(Cc1[nH]c2ccncc2c1C)C(F)(F)F (stereo not shown) [1,1,1-Trifluoro-4-(5-fluoro-2-methoxyphenyl)-4-methyl-2-(3-methyl-1H pyrrolo[3,2-c]pyridin-2-ylmethyl)pentan-2-ol]
activity in the GR binding assay [1]: potent activity | activity as agonists of the glucocorticoid receptor function in one or more of the above assays [2]: potent agonists

Compound: Cc1ccc(C(C)(C)CC(O)(Cc2ccnc3ccccc23)C(F)(F)F)cc1F (stereo not shown) [1,1,1-Trifluoro-4-(3-fluoro-4-methylphenyl)-4-methyl-2-quinolin-4-ylmethylpentan-2-ol]
activity in the GR binding assay [1]: potent activity | activity as agonists of the glucocorticoid receptor function in one or more of the above assays [2]: potent agonists

Compound: CC(C)(CC(O)(Cc1ccnc2ccccc12)C(F)(F)F)c1ccccc1C(F)(F)F (stereo not shown) [1,1,1-Trifluoro-4-methyl-2-quinolin-4-ylmethyl-4-(2-trifluoromethylphenyl)pentan-2-ol]
activity in the GR binding assay [1]: potent activity | activity as agonists of the glucocorticoid receptor function in one or more of the above assays [2]: potent agonists

Compound: COc1ccc(F)cc1C(C)(C)CC(O)(Cc1cc2cnccc2[nH]1)C(F)F (stereo not shown) [1,1-Difluoro-4-(5-fluoro-2-methoxyphenyl)-4-methyl-2-(1H-pyrrolo[3,2-c]pyridin-2-ylmethyl)pentan-2-ol]
activity in the GR binding assay [1]: potent activity | activity as agonists of the glucocorticoid receptor function in one or more of the above assays [2]: potent agonists

Compound: Cc1ccc(F)cc1C(C)(C)CC(O)(Cn1ccc2ncccc21)C(F)(F)F (stereo not shown) [1,1,1-Trifluoro-4-(5-fluoro-2-methylphenyl)-4-methyl-2-pyrrolo[3,2-b]pyridin-1-ylmethylpentan-2-ol]
activity in the GR binding assay [1]: potent activity | activity as agonists of the glucocorticoid receptor function in one or more of the above assays [2]: potent agonists

Compound: CSc1ccc2[nH]c(CC(O)(CC(C)(C)c3cc(F)cc4c3OCC4)C(F)(F)F)cc2c1 (stereo not shown) [1,1,1-Trifluoro-4-(5-fluoro-2,3-dihydrobenzofuran-7-yl)-4-methyl-2-(5-methylsulfanyl-1H-indol-2-ylmethyl)pentan-2-ol]
activity in the GR binding assay [1]: potent activity | activity as agonists of the glucocorticoid receptor function in one or more of the above assays [2]: potent agonists

Compound: COc1ccc(F)cc1C(C)(C)CC(O)(Cc1cc2ccnc(F)c2[nH]1)C(F)(F)F (stereo not shown) [1,1,1-Trifluoro-4-(5-fluoro-2-methoxyphenyl)-2-(7-fluoro-1H-pyrrolo[2,3-c]pyridin-2-ylmethyl)-4-methylpentan-2-ol]
activity in the GR binding assay [1]: potent activity | activity as agonists of the glucocorticoid receptor function in one or more of the above assays [2]: potent agonists

Compound: COc1ccc(F)cc1C(C)(C)CC(O)(Cc1cc2cc(Cl)nc(Cl)c2[nH]1)C(F)(F)F (stereo not shown) [2-(5,7-Dichloro-1H-pyrrolo[2,3-c]pyridin-2-ylmethyl)-1,1,1-trifluoro-4-(5-fluoro-2-methoxyphenyl)-4-methylpentan-2-ol]
activity in the GR binding assay [1]: potent activity | activity as agonists of the glucocorticoid receptor function in one or more of the above assays [2]: potent agonists

Compound: Cc1cc(C#N)cc2[nH]c(CC(O)(CC(C)(C)c3cccc4c3OCC4)C(F)(F)F)cc12 (stereo not shown) [2-[4-(2,3-Dihydrobenzofuran-7-yl)-2-hydroxy-4-methyl-2-trifluoromethylpentyl]-4-methyl-1H-indole-6-carbonitrile]
activity in the GR binding assay [1]: potent activity | activity as agonists of the glucocorticoid receptor function in one or more of the above assays [2]: potent agonists

Compound: COc1cc(F)ccc1C(C)(C)CC(O)(Cc1cc2c(C)ccc(F)c2[nH]1)C(F)(F)F (stereo not shown) [1,1,1-Trifluoro-4-(4-fluoro-2-methoxyphenyl)-2-(7-fluoro-4-methyl-1H-indol-2-ylmethyl)-4-methylpentan-2-ol]
activity in the GR binding assay [1]: potent activity | activity as agonists of the glucocorticoid receptor function in one or more of the above assays [2]: potent agonists

Compound: CCC(C)(CC(O)(Cc1ccnc2ccccc12)C(F)(F)F)c1ccccc1 (stereo not shown) [1,1,1-Trifluoro-4-methyl-4-phenyl-2-quinolin-4-ylmethylhexan-2-ol]
activity in the GR binding assay [1]: potent activity | activity as agonists of the glucocorticoid receptor function in one or more of the above assays [2]: potent agonists

Compound: COc1ccc(F)cc1C(C)(C)CC(O)(Cc1cc(C)nc2ccccc12)C(F)(F)F (stereo not shown) [1,1,1-Trifluoro-4-(5-fluoro-2-methoxyphenyl)-4-methyl-2-(2-methylquinolin-4-ylmethyl)pentan-2-ol]
activity in the GR binding assay [1]: potent activity | activity as agonists of the glucocorticoid receptor function in one or more of the above assays [2]: potent agonists

Compound: COc1ccc(C(C)C)cc1C(C)(C)CC(O)(Cc1[nH]c2ccccc2c1C#N)C(F)(F)F (stereo not shown) [2-[2-Hydroxy-4-(5-isopropyl-2-methoxyphenyl)-4-methyl-2-trifluoromethylpentyl]-1H-indole-3-carbonitrile]
activity in the GR binding assay [1]: potent activity | activity as agonists of the glucocorticoid receptor function in one or more of the above assays [2]: potent agonists

Compound: Cc1ccc(F)cc1C(C)(C)CC(O)(Cc1cc2ncncc2[nH]1)C(F)(F)F (stereo not shown) [1,1,1-Trifluoro-4-(5-fluoro-2-methylphenyl)-4-methyl-2-(5H-pyrrolo[3,2-d]pyrimidin-6-ylmethyl)pentan-2-ol]
activity in the GR binding assay [1]: potent activity | activity as agonists of the glucocorticoid receptor function in one or more of the above assays [2]: potent agonists

Compound: COc1ccc(F)cc1C(C)(C)CC(O)(Cc1cc2c(Cl)nc(N)nc2[nH]1)C(F)(F)F (stereo not shown) [2-(2-Amino-4-chloro-7H-pyrrolo[2,3-d]pyrimidin-6-ylmethyl)-1,1,1-trifluoro-4-(5-fluoro-2-methoxyphenyl)-4-methylpentan-2-ol]
activity in the GR binding assay [1]: potent activity | activity as agonists of the glucocorticoid receptor function in one or more of the above assays [2]: potent agonists
